Measurements taken from patent US20200392108A1, “ANTIBODY-DRUG CONJUGATES AND RELATED COMPOUNDS, COMPOSITIONS AND METHODS” (Magenta Therapeutics, Inc., priority 2011, published 2020).
pIC50: −log10 of the molar value. Where two headings read alike, the source gives them in different places. Square brackets hold non-standard residues; d marks the D form. Peptide text beside a SMILES is read from it. Dolaproine = CO[C@@H]([C@@H]1CCCN1)[C@@H](C)C(=O)O; Dil = CC[C@H](C)[C@H](NC)[C@@H](CC(=O)O)OC; NMeV = CN[C@H](C(=O)O)C(C)C

Test system: BT474 (HER2+) cell line
Assay: Standard cellular cytotoxicity assay, BT474
Assay type: cell-based, human
Description: The cytotoxicity of tubulysins T1 and T2 was compared to the cytotoxicity of MMAF using the BT474 (HER2+) cell line in a standard cellular cytotoxicity assay.

SMILES | pIC50 | pIC50 (Homo sapiens, BT-474)
CC[C@H](C)[C@@H]([C@@H](CC(=O)N1CCC[C@H]1[C@H](OC)[C@@H](C)C(=O)N[C@@H](Cc1ccccc1)C(=O)O)OC)N(C)C(=O)[C@@H](NC(=O)[C@@H](NC)C(C)C)C(C)C [MMAF, monomethylauristatin F] (H-[NMeV]V[Dil][Dolaproine]F-OH) | 7.03 | –
CC[C@H](C)[C@H](NC(=O)[C@H]1CCCCN1C)C(=O)N(C)[C@H](C[C@@H](OC(C)=O)c1nc(C(=O)O)cs1)C(C)C [T1] | – | 7.96
CC[C@H](C)[C@H](NC(=O)[C@H]1CCCCN1C)C(=O)N(C)[C@H](C[C@@H](OC(C)=O)c1nc(C(=O)N[C@@H](Cc2ccccc2)C[C@H](C)C(=O)O)cs1)C(C)C [T2] | – | > 10.00
